Results from PubChem BioAssay AID1959 (Broad Institute, 2009).
The source made the active and inactive calls.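 How the source made its calls: active means growth-inhibition EC50 no more than tenfold above the top tested dose; inconclusive means flat fit between 30% and 70% inhibition, or unreliable fit; inactive means EC50 more than tenfold above the top tested dose.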

These compounds were tested on E. coli NEB5alpha growth, BacTiter-Glo luminescence, 4 h (assay: antibacterial activity against E. coli NEB5alpha – luminescence, counter-screen for MEX-5/POS-1 RNA-binding inhibitor project, dose response (AID 1959);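 further: pUC19-transformed ampicillin-resistant cells grown in LB with ampicillin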).
For CCN(CC)c1ccc(C=C2C(=O)OC(C)(C(C)(C)C)OC2=O)cc1 (stereo not given), the EC50 was > 11 µM (inactive). With Cc1nc(S/C(=C\c2ccc(-c3ccc(C(=O)O)c(Cl)c3)o2)C(=O)O)n[nH]1 the EC50 was > 11 µM (inactive). N#CC1=C(N)OC2=C(C(=O)CCC2)C1c1cc2c(cc1Cl)OCO2 (stereo not given) was tested, and the EC50 was > 11 µM (inactive). Cc1cc(C=O)c(C)n1-c1ccc(Cl)c(C(=O)O)c1 was tested, and the EC50 was > 11 µM (inactive). For CN1C(=O)/C(=C/C=C/c2ccco2)C(=O)NC1=S, the EC50 was > 11 µM (inactive). Cc1ccc(-c2ccc(CCC(=O)O)n2-c2ccc(C(=O)O)cc2)cc1 was tested, and the EC50 was > 11 µM (inactive). With Cc1cc(C=C2C(=O)N(C)C(=S)N(C)C2=O)c(C)n1C1CCCC1 the EC50 was > 11 µM (inactive). COC(=O)CCCC1=CC2=CC(=O)C(C)(OC(=O)CCc3ccccc3)C(=O)C2=CO1 (stereo not given) was tested, and the EC50 was > 11 µM (inactive). With Nc1ccc2nc(CCCO)[nH]c2c1 the EC50 was > 11 µM (inactive). In the case of COc1cccc(C(=O)NCC(=O)NNc2ncnc(N)c2[N+](=O)[O-])c1, the EC50 is reported as > 11 µM (inactive). CCCCC1=CC2=CC(=O)C(C)(OC(=O)c3cnc4ccccc4n3)C(=O)C2=CO1 (stereo not given) was tested, and the EC50 was > 11 µM (inactive). Nc1ccc2nc(-c3cccc(-c4nc5ccc(N)cc5[nH]4)n3)[nH]c2c1 was tested, and the EC50 was > 11 µM (inactive). COc1cccc(NC(=O)C(=O)c2cn(CC(=O)N3CCOCC3)c3ccccc23)c1 was tested, and the EC50 was > 11 µM (inactive). With COC(=O)CCC(=O)OC1(C)C(=O)C=C2C=C(c3ccsc3)OC=C2C1=O (stereo not given) the EC50 was > 11 µM (inactive). COc1ccc(CCn2c(=N)c(C(=O)NC3CCCCC3)cc3c(=O)n4ccccc4nc32)cc1 was tested, and the EC50 was > 11 µM (inactive). For Oc1ccc(-c2cn3ccccc3n2)cc1O, the EC50 was > 11 µM (inactive). With O=C(NNc1ccccc1)C(=O)NNS(=O)(=O)c1ccc([N+](=O)[O-])cc1 the EC50 was > 11 µM (inactive). For CCOC(=O)N1CCN(/C=C(\C#N)c2nc3ccccc3s2)CC1, the EC50 was > 11 µM (inactive). COC(=O)[C@H](CCSC)NC(=O)NC1CCN(Cc2ccccc2)CC1 was tested, and the EC50 was > 11 µM (inactive). For CCc1cc[n+](-c2nc([O-])sc2C=O)cc1, the EC50 was > 11 µM (inactive). CCSC1=N/C(=C\c2ccccc2)C(=O)N1 was tested, and the EC50 was > 11 µM (inactive). With Cn1c(O)c(C=NCCCCCCCCCCC(=O)O)c(=O)n(C)c1=O the EC50 was > 11 µM (inactive). In the case of O=C(c1ccc(F)cc1)N1CCN(C2CCC(c3ccccc3)CC2)CC1 (stereo not given), the EC50 is reported as > 11 µM (inactive). In the case of Oc1ccc(N=Nc2ccccc2-c2nn[nH]n2)c(O)c1, the EC50 is reported as > 11 µM (inactive). In the case of CCN(CC)C(=O)CNc1ccc(C(F)(F)F)cc1[N+](=O)[O-], the EC50 is reported as > 11 µM (inactive). Cc1cccn2c(=O)c3cc(C#N)c(=NC(=O)c4cccs4)n(CCCOC(C)C)c3nc12 was tested, and the EC50 was > 11 µM (inactive). Cc1cccn2c(=O)c3cc(S(=O)(=O)c4ccccc4)c(=N)n(Cc4cccnc4)c3nc12 was tested, and the EC50 was > 11 µM (inactive). COc1cccc(-n2c(O)c(C=Nc3c(C)n(C)n(-c4ccccc4)c3=O)c(=O)[nH]c2=O)c1 was tested, and the EC50 was > 11 µM (inactive). In the case of Cc1c(N)cc(N)cc1C(=O)O, the EC50 is reported as > 11 µM (inactive). C=CCOc1ccc(C2C(C(=O)c3cccs3)=C(O)C(=O)N2c2nnc(C)s2)cc1 (stereo not given) was tested, and the EC50 was > 11 µM (inactive). With N#Cc1c(N)n(-c2ccc(C(=O)O)cc2)c2nc3ccccc3nc12 the EC50 was > 11 µM (inactive). In the case of Cc1ccc(Cl)c2c1=NC(=O)C=2c1[nH]c(=S)[nH]c1O, the EC50 is reported as > 11 µM (inactive). For O=C(O)c1cccc(-n2cccc2/C=C2/NC(=O)N(Cc3ccccc3F)C2=O)c1, the EC50 was > 11 µM (inactive). O=C1NC(=Nc2ccccc2Cl)S/C1=C\c1cc([N+](=O)[O-])ccc1O was tested, and the EC50 was > 11 µM (inactive). For CC(C)(C)OC(=O)NCCCCC1=CC2=CC(=O)C(C)(OC(=O)c3ccco3)C(=O)C2=CO1 (stereo not given), the EC50 was > 11 µM (inactive). With CC(NC(=O)COc1ccccc1)C(=O)OCC(=O)c1cc2ccccc2o1 (stereo not given) the EC50 was > 11 µM (inactive). For CN1C(=O)/C(=C/c2ccc3c(c2)OCO3)N=C1c1ccccc1, the EC50 was > 11 µM (inactive). In the case of COc1cc(C2C(C#N)=C(N)OC3=C2C(=O)CC(C)(C)C3)cc2c1OCO2 (stereo not given), the EC50 is reported as > 11 µM (inactive). COc1cc(C2C(C#N)=C(N)OC3=C2C(=O)CCC3)ccc1OC(=O)N1CCOCC1 (stereo not given) was tested, and the EC50 was > 11 µM (inactive). For CC(C)(C)C(=O)c1sc2nc(-c3cccs3)cc(C(F)(F)F)c2c1N, the EC50 was > 11 µM (inactive). With COCCN1CCC(CNCc2cn[nH]c2-c2ccc(C)c(C)c2)C1 (stereo not given) the EC50 was > 11 µM (inactive). In the case of Cc1ccc(N=Nc2[nH]c3ccccc3c2O)cc1, the EC50 is reported as > 11 µM (inactive). Cc1cccn2c(=O)c3cc(C(=O)NC4CCCCC4)c(=N)n(Cc4ccccc4)c3nc12 was tested, and the EC50 was > 11 µM (inactive). Compound CCCCCCCCCCCCCCCCn1cc[n+](C)c1 has an EC50 of 9.41 µM. For COCCNC(=O)Cn1cc(/C=C2\C(=O)NC(=O)N(c3ccccc3F)C2=O)c2ccccc21, the EC50 was > 11 µM (inactive). In the case of CCCN1C(=O)/C(=C/c2ccc(C)o2)SC1=Nc1ccc(OC)cc1, the EC50 is reported as > 11 µM (inactive). Cc1ccc(-c2ccccc2)n1-c1ccc(C(=O)O)cc1 was tested, and the EC50 was > 11 µM (inactive). With O=C(N=c1ccn(-c2nc3ccccc3nc2NS(=O)(=O)c2ccccc2)cc1)c1ccccc1Cl the EC50 was > 11 µM (inactive). For Nc1nc(Sc2ccc([N+](=O)[O-])cc2[N+](=O)[O-])n[nH]1, the EC50 was > 11 µM (inactive). In the case of CCOC(=O)c1nn(-c2ccc(C)cc2)c2nc(Nc3ccccc3)cc(=O)n12, the EC50 is reported as > 11 µM (inactive). With COC(=O)c1sccc1NC(=O)c1ccc(C)s1 the EC50 was > 11 µM (inactive). CCOC(=O)c1cc(=O)n2nc(-c3ccccc3F)nc2s1 was tested, and the EC50 was > 11 µM (inactive). For CC1(OC(=O)CCc2ccccc2)C(=O)C=C2C=C(C3CC3)OC=C2C1=O (stereo not given), the EC50 was > 11 µM (inactive). In the case of COc1ccc2nc(SCC(=O)Nc3nonc3C)[nH]c2c1, the EC50 is reported as > 11 µM (inactive). In the case of Cc1ccc2[nH]c(=O)c(CN(CCO)Cc3nnnn3CCc3ccccc3)cc2c1, the EC50 is reported as > 11 µM (inactive). Cc1ccc(N/N=C/c2c(C)c(C#N)c(=O)n(C)c2O)cc1C was tested, and the EC50 was > 11 µM (inactive). With CC(C)(C)c1ccc(OCc2ccc(C(=O)Nc3cccnc3)o2)cc1 the EC50 was > 11 µM (inactive). COc1ccc(C2c3ccc(O)cc3Oc3ncn(Cc4ccco4)c(=N)c32)cc1OC (stereo not given) was tested, and the EC50 was > 11 µM (inactive). In the case of Cc1nc2sc(-c3ccccc3)cc2c(=O)n1N, the EC50 is reported as > 11 µM (inactive). In the case of COC(=O)CCC(=O)OC1(C)C(=O)C2=COC(c3ccc(OC)cc3)=CC2=C(Br)C1=O (stereo not given), the EC50 is reported as > 11 µM (inactive). For Cc1cc(C(F)(F)F)c2c(N)c(C(=O)Nc3cc(C)on3)sc2n1, the EC50 was > 11 µM (inactive). With COc1c(O)cccc1[C@H](O)C1CCN(CCc2ccc(F)cc2)CC1 the EC50 was > 11 µM (inactive). For N#Cc1cc(NC2CCCC2)c([N+](=O)[O-])cc1C#N, the EC50 was > 11 µM (inactive). In the case of Cc1ccccc1N=Nc1c(O)n(C)c2ccccc12, the EC50 is reported as > 11 µM (inactive). With Cc1ccc(-c2cc(-c3ccco3)c(C#N)c(=O)[nH]2)cc1 the EC50 was > 11 µM (inactive). Cc1ccc(/C=C2\Oc3c(ccc(O)c3CN3CCN(CCO)CC3)C2=O)cc1 was tested, and the EC50 was > 11 µM (inactive). In the case of CN1CCN(/C=N/C2=C(C#N)C(c3ccccc3)C3=C(CC(C)(C)CC3=O)O2)CC1 (stereo not given), the EC50 is reported as > 11 µM (inactive). With CC1=NN(C(N)=S)C(=O)C1N=Nc1c(Cl)cc([N+](=O)[O-])cc1Cl (stereo not given) the EC50 was > 11 µM (inactive). In the case of Cc1ccc(N=Cc2nc(-c3ccc(C)cc3)oc2O)cc1, the EC50 is reported as > 11 µM (inactive). For COC(=O)/C(C#N)=C/c1c(Oc2cc(C)cc(C)c2)nc2c(C)cccn2c1=O, the EC50 was > 11 µM (inactive). With Cc1cc(/C=C2/C(=O)NC(=O)N(c3ccc(Br)cc3)C2=O)c(C)n1C the EC50 was > 11 µM (inactive). In the case of Cc1cc(/C=C2\SC(=O)N(C)C2=O)c(C)n1-c1cccc(C(=O)O)c1, the EC50 is reported as > 11 µM (inactive). CCC(C)n1c(=N)c(C#N)cc2c(=O)n3cc(C)ccc3nc21 (stereo not given) was tested, and the EC50 was > 11 µM (inactive). O=C1CSC(=S)N1/N=C/c1ccc(Cl)c([N+](=O)[O-])c1 was tested, and the EC50 was > 11 µM (inactive). For O=C(NCc1ccncc1)C(=O)N/N=C/c1ccccn1, the EC50 was > 11 µM (inactive). For COc1cc(/C=C2/C(=O)ON=C2C)ccc1OCc1ccccc1F, the EC50 was > 11 µM (inactive). For C=CCc1cccc(/C=N/n2cnnc2)c1O, the EC50 was > 11 µM (inactive). For Nc1ccc(S(=O)(=O)NNC(=O)C(=O)NNc2ccccn2)cc1, the EC50 was > 11 µM (inactive). With COc1ccc(OC)c(C(=O)c2coc3ccc(O)c(CN4CCOCC4)c23)c1 the EC50 was > 11 µM (inactive). O=C(N[C@H]1CP(=O)(Oc2ccccc2)O[C@H](COCc2ccccc2)[C@H]1O)C(Cl)(Cl)Cl (stereo not given in full) was tested, and the EC50 was > 11 µM (inactive). With COc1ccc(C2=CC3=C(Br)C(=O)C(C)(OC(=O)C4CCCC4)C(=O)C3=CO2)cc1 (stereo not given) the EC50 was > 11 µM (inactive). With Cc1n[nH]c(C)c1N1C(=O)c2cccc3c(N4CCCCCC4)ccc(c23)C1=O the EC50 was > 11 µM (inactive). O=C(NNC(=O)c1cnccn1)c1ccc(Cl)cc1 was tested, and the EC50 was > 11 µM (inactive). COC(=O)c1c(=O)n(O)c2ccc(OC)cc2[n+]1[O-] was tested, and the EC50 was > 11 µM (inactive). With CCNc1nn2ccccc2c1/C=C(\C#N)C(=O)OCC the EC50 was > 11 µM (inactive). In the case of COc1ccc(OC)c(/C=c2\sc3nc(-c4cccs4)nn3c2=O)c1, the EC50 is reported as > 11 µM (inactive). For O=C1/C(=C/c2ccc(O)c(O)c2)SC(=S)N1Nc1ccccc1, the EC50 was > 11 µM (inactive). In the case of O=C(NNC(=O)c1ccccc1O)c1ccc(S(=O)(=O)Nc2ccccc2F)cc1, the EC50 is reported as > 11 µM (inactive). With CC1(OC(=O)c2ccco2)C(=O)C=C2C=C(c3ccsc3)OC=C2C1=O (stereo not given) the EC50 was > 11 µM (inactive). With CN1C(=O)C(=Cc2sc(=O)n(-c3ccccc3)c2N2CCCCC2)C(=O)N(C)C1=O the EC50 was > 11 µM (inactive). For Cc1ccccc1N1C(=O)NC(=O)/C(=C\c2cc(C)n(C)c2C)C1=O, the EC50 was > 11 µM (inactive). For N=c1c(C(=O)NCC2CCCO2)cc2c(=O)n3ccccc3nc2n1Cc1cccnc1 (stereo not given), the EC50 was > 11 µM (inactive). With COc1cc(C2C3CN(C)CC=C3C(C#N)=C(N)C2(C#N)C#N)ccc1OC(C)C (stereo not given) the EC50 was > 11 µM (inactive). In the case of Cc1ccc[n+](-c2[nH]c(=O)sc2/C=N/NC(=O)c2ccccc2[O-])c1, the EC50 is reported as > 11 µM (inactive). For Cc1ccc(Sc2ccc(C=C3C(=O)N(C)C(=O)N(C)C3=O)o2)cc1, the EC50 was > 11 µM (inactive).
